Source: ChEMBL document CHEMBL6078666, “Discovery of Novel Coumarin Pleuromutilin Derivatives as Potent Anti-MRSA Agents” (J Med Chem, 2024)
In brackets after ≈: the same amount, converted by molar mass. Activity calls are given as the source filed them. The rule behind the calls is not given here.

Experiments:
Enterococcus faecium [1] = assay: Ratio of MBC to MIC against vancomycin-resistant Enterococcus faecium ATCC 51559; assay type: functional
[2] = AUC (0 to t) in mouse at 5 mg/kg, iv measured after 8 hrs; assay type: ADME, organism-based; conditions: in vivo
Staphylococcus aureus [3] = assay: Antibacterial activity against methicillin-resistant Staphylococcus aureus ATCC 33591 infected in female C57 mouse systemic infection model assessed as reduction in bacterial load in liver at 40 mg/kg, iv administered twice daily and measured after 7 days; assay type: functional; conditions: time 7 day
HepG2 = assay: Cytotoxicity against human HepG2 cells at 0 to 40 ug/ml measured after 24 hrs by MTT assay relative to control; assay type: functional; conditions: dose 0-40 µg/ml
[4] = MRT in mouse at 5 mg/kg, iv measured after 8 hrs; assay type: ADME, organism-based; conditions: in vivo
Staphylococcus aureus [5] = assay: Antibacterial activity against methicillin-resistant Staphylococcus aureus ATCC 33591 infected in female C57 mouse systemic infection model assessed as effective dose; assay type: functional
[6] = Hemolytic activity in rabbit RBC assessed as hemolysis rate at 0 to 100 ug/ml incubated for 1 hr by microplate reader analysis relative to control; assay type: toxicity, cell-based, Oryctolagus cuniculus, Erythrocyte; conditions: rabbit red blood cells, dose 0-100 µg/ml, read-out: Activity
Staphylococcus aureus [7] = assay: (§1) Antibacterial activity against methicillin-resistant Staphylococcus aureus ATCC 33591 infected in female C57 mouse systemic infection model assessed as reduction in bacterial load in lung at 40 mg/kg, iv administered twice daily and measured after 7 days; assay type: functional; conditions: time 7 day
Staphylococcus aureus [8] = assay: Bactericidal activity against methicillin-resistant Staphylococcus aureus ATCC 33591 at 1 times MIC measured upto 24 hrs by time kill assay; assay type: functional, organism-based
Staphylococcus aureus [9] = assay: Antibacterial activity against methicillin resistant Staphylococcus aureus ATCC 33591 assessed as post antibiotic effect at 2 times MIC by time kill assay; assay type: functional
Staphylococcus aureus [10] = assay: Antibacterial activity against methicillin-resistant Staphylococcus aureus ATCC 33591 infected in female C57 mouse systemic infection model assessed as reduction in bacterial load in kidney at 40 mg/kg, iv administered twice daily and measured after 7 days; assay type: functional; conditions: time 7 day
Streptococcus pneumoniae [11] = assay: Ratio of MBC to MIC against penicillin-intermediate Streptococcus pneumoniae ATCC 49619; assay type: functional
Streptococcus pneumoniae [12] = assay: Ratio of MBC to MIC against penicillin-resistant Streptococcus pneumoniae ATCC 51916; assay type: functional
Staphylococcus aureus [13] = assay: Bactericidal activity against methicillin-resistant Staphylococcus aureus ATCC 33591 at 1 to 8 times MIC by time kill assay; assay type: functional, organism-based; conditions: time <= 24.0 hrs
Staphylococcus aureus [14] = assay: as §1, with “inflammatory cell aggregation” for “bacterial load”, “days by H and E staining based analysis” for “days”; assay type: functional, organism-based; conditions: time 7.0 day
Staphylococcus aureus [15] = assay: (§2) Antibacterial activity against methicillin-resistant Staphylococcus aureus ATCC 33591 infected in female C57 mouse systemic infection model assessed as reduction in vacuolation in heart at 40 mg/kg, iv administered twice daily and measured after 7 days by H and E staining based analysis; assay type: functional, organism-based; conditions: time 7.0 day
Enterococcus faecium [16] = assay: Antibacterial activity against vancomycin-resistant Enterococcus faecium clinical isolate 202308456 assessed as bacterial growth inhibition measured after 20 hrs by broth dilution method; assay type: functional
[17] = system: Staphylococcus epidermidis; assay: Antibacterial activity against methicillin-resistant Staphylococcus epidermidis clinical isolate 202409454 assessed as bacterial growth inhibition measured after 20 hrs by broth dilution method; assay type: functional
Staphylococcus aureus [18] = assay: as §2, with “number of inflammatory cells” for “vacuolation”; assay type: functional, organism-based; conditions: time 7.0 day
Staphylococcus aureus [19] = assay: Antibacterial activity against methicillin-resistant Staphylococcus aureus ATCC 33591 infected in female C57 mouse systemic infection model assessed as reduction in bacterial load in heart at 40 mg/kg, iv administered twice daily and measured after 7 days; assay type: functional; conditions: time 7 day
Staphylococcus aureus [20] = assay: Ratio of MBC to MIC against methicillin-resistant Staphylococcus aureus clinical isolate 202311772; assay type: functional
Staphylococcus aureus [21] = assay: as §2, with “inflammatory infiltration” for “vacuolation”, “kidney” for “heart”; assay type: functional, organism-based; conditions: time 7.0 day
Staphylococcus aureus [22] = assay: Antibacterial activity against methicillin-resistant Staphylococcus aureus ATCC 33591 infected in female C57 mouse systemic infection model assessed as survival rate at 40 mg/kg, po measured upto 7 days relative to control; assay type: functional; conditions: ATCC 33591, 168 h, time <= 7 day
L02 = assay: Cytotoxicity against human HL7702 cells at 0 to 40 ug/ml measured after 24 hrs by MTT assay relative to control; assay type: toxicity, cell-based; conditions: l02, 24 h, dose 0-40 µg/ml
Staphylococcus aureus [23] = assay: Antibacterial activity against methicillin-resistant Staphylococcus aureus ATCC 33591 infected in female C57 mouse systemic infection model assessed as restoration of cell morphology at 40 mg/kg, iv administered twice daily and measured after 7 days by H and E staining based analysis; assay type: functional, organism-based; conditions: time 7.0 day
Staphylococcus aureus [24] = assay: as §2, with “local blood cell accumulation” for “vacuolation”, “spleen” for “heart”; assay type: functional, organism-based; conditions: time 7.0 day
Streptococcus pneumoniae [25] = assay: Antibacterial activity against penicillin-intermediate Streptococcus pneumoniae ATCC 49619 assessed as bacterial growth inhibition measured after 20 hrs by broth dilution method; assay type: functional
Staphylococcus aureus [26] = assay: Antibacterial activity against methicillin-resistant Staphylococcus aureus ATCC 33591 infected in female C57 mouse systemic infection model assessed as survival rate at 20 mg/kg, po measured upto 7 days relative to control; assay type: functional; conditions: ATCC 33591, 168 h, time <= 7 day
[27] = Hemolytic activity in rabbit RBC assessed as hemolysis rate at 200 ug/ml incubated for 1 hr by microplate reader analysis relative to control; assay type: toxicity, cell-based, Oryctolagus cuniculus, Erythrocyte; conditions: rabbit red blood cells, at 200 µg/mL, read-out: Activity
Enterococcus faecium [28] = assay: Antibacterial activity against vancomycin-resistant Enterococcus faecium ATCC 700221 assessed as bacterial growth inhibition measured after 20 hrs by broth dilution method; assay type: functional
Staphylococcus aureus [29] = assay: Antibacterial activity against methicillin-resistant Staphylococcus aureus clinical isolate 202311772 assessed as bacterial growth inhibition measured after 20 hrs by broth dilution method; assay type: functional
Enterococcus faecium [30] = assay: Ratio of MBC to MIC against vancomycin-resistant Enterococcus faecium clinical isolate 202308456; assay type: functional
Staphylococcus aureus [31] = assay: Ratio of MBC to MIC against methicillin-resistant Staphylococcus aureus clinical isolate 202313160; assay type: functional
Enterococcus faecium [32] = assay: Ratio of MBC to MIC against vancomycin-resistant Enterococcus faecium ATCC 700221; assay type: functional
Staphylococcus aureus [33] = assay: Antibiofilm activity in methicillin-resistant Staphylococcus aureus ATCC 33591 assessed as inhibition of biofilm formation at 1/16 times MIC measured after 48 hrs by crystal violet staining based analysis relative to control; assay type: functional; set-up: scale not given: the % may be the effect or the level left
[34] = Half life in mouse at 5 mg/kg, iv measured after 8 hrs; assay type: ADME, organism-based; conditions: in vivo
Staphylococcus aureus [35] = assay: as §2, with “appearance of loosely arranged cells” for “vacuolation”, “spleen” for “heart”; assay type: functional, organism-based; conditions: time 7.0 day
Staphylococcus aureus [36] = assay: Antibiofilm activity in methicillin-resistant Staphylococcus aureus ATCC 33591 assessed as disruption of preformed biofilm at 4 to 16 times MIC measured after 24 hrs by crystal violet staining based assay relative to control; assay type: functional

C=C[C@]1(C)C[C@@H](OC(=O)CSc2cc(=O)oc3cc(OC)ccc23)[C@]2(C)[C@H](C)CC[C@]3(CCC(=O)[C@H]32)[C@@H](C)[C@@H]1O
Ratio (Enterococcus faecium [1]): 1
AUCt [2]: 1740 ng·h/mL
Activity (Staphylococcus aureus [3]): 2.05 log10CFU/g
Activity (HepG2): >85%
MRT [4]: 0.61 h
ED50 (Staphylococcus aureus [5]): 11.2 mg/kg
hemolysis at 1 h [6]: < 4%
Activity (Staphylococcus aureus [7]): 2.21 log10CFU/g
Activity (Staphylococcus aureus [8]): Active
PAE (Staphylococcus aureus [9]): 1.51 h
Activity (Staphylococcus aureus [10]): 1.91 log10CFU/g
Ratio (Streptococcus pneumoniae [11]): >4
Ratio (Streptococcus pneumoniae [12]): 2
Activity (Staphylococcus aureus [13]): Time-dependent-effect
Activity (Staphylococcus aureus [14]): Active
Activity (Staphylococcus aureus [15]): Active
MIC (Enterococcus faecium [16]): 0.031 µg/mL (≈ 0.0545 µM)
MIC [17]: 0.063 µg/mL (≈ 0.111 µM)
Activity (Staphylococcus aureus [18]): Active
Activity (Staphylococcus aureus [19]): 3.33 log10CFU/g
Ratio (Staphylococcus aureus [20]): 1
Activity (Staphylococcus aureus [21]): Active
survival at 40 mg/kg (Staphylococcus aureus [22]): 80%
Activity (L02): > 85%
Activity (Staphylococcus aureus [23]): Active
Activity (Staphylococcus aureus [24]): Active
MIC (Streptococcus pneumoniae [25]): 0.031 µg/mL (≈ 0.0545 µM)
survival at 20 mg/kg (Staphylococcus aureus [26]): 60%
hemolysis at 1 h, 200 ug/ml [27]: < 8%
MIC (Enterococcus faecium [28]): 0.031 µg/mL (≈ 0.0545 µM)
MIC (Staphylococcus aureus [29]): 0.031 µg/mL (≈ 0.0545 µM)
Ratio (Enterococcus faecium [30]): 2
Ratio (Staphylococcus aureus [31]): 2
Ratio (Enterococcus faecium [32]): 1
Activity (Staphylococcus aureus [33]): 80.67%
half-life [34]: 1.52 h
Activity (Staphylococcus aureus [35]): Active
Activity (Staphylococcus aureus [36]): 68.29%
